According to patent US20090306059A1, “CYCLIC AMINE DERIVATIVE HAVING SUBSTITUTED ALKYL GROUP” (priority 2005, published 2009):
Where a name gives a salt, the structure may show the parent alone.

System: platelet aggregation caused by ADP in platelet-rich plasma (PRP) after oral administration
Assay: Test Example 2: ex vivo platelet aggregation inhibitory effect
Format: in vivo, rat (male Sprague-Dawley)
Conditions: 10 mg/kg orally, 4 hours before blood sampling, rat PRP, ADP final concentration 3 μM, maximum platelet aggregation ratio, read-out: Test Example 1 (% inhibition) 10 mg/kg
Experimental: Male Sprague-Dawley rats (8-week old, Japan SLC, Inc.), 3 to 4 animals per group, were used for the test. The platelet aggregation was measured with an automatic platelet aggregometer (MCM Hema Tracer 313M, MC Medical, Inc.) by a partially modified method of Bom et al., The Journal of Physiology, Vol. 168, Section 178 (1963). Test compounds suspended in 5% Arabian gum solution or 10% dimethylacetamide/64% polyethylene glycol 400/16% Tween 80 solution were orally administered in a dose ratio of 1 mL/kg 4 hours before blood sampling. Vehicle was orally administered 4 hours in a dose ratio of 1 mL/kg before the sampling of the blood for the control group. 6.3 ml of blood was sampled from the ventral aorta of a rat anesthetized with pentobarbital (40 mg/kg) using 3.8% (w/v) sodium citrate solution (0.7 ml) as an anticoagulant. The obtained blood containing citrate was centrifuged (230 g, 15 minutes, room temperature) to separate PRP. The blood after the separation of PRP was further centrifuged (2,000 g, 10 minutes, room temperature) to separate PPP. After the number of blood platelet in PRP was measured with a multi-item automatic blood corpuscle counter (KX-21N, Sysmex Corporation), PPP was added thereto to adjust the blood platelet to 5×10^8/ml. After PRP (240 μl) was pipetted into cuvettes, the cuvettes were set in the automatic platelet aggregometer. After preliminary warming (37° C.) for 1.5 minutes, 10 μl of ADP solution (final concentration 3 μM) was added to cause platelet aggregation. Platelet aggregation was measured for 5 minutes and the maximum platelet aggregation ratio was determined.

Compound	inhibition at 10 mg/kg [%]
O=C(O)CCCN1CCN(C/C=C2\CN(C(C(=O)C3CC3)c3ccccc3F)CCC2S)C(=O)C1 (centres unmarked) [Example 72, (E)-3-(2-{4-[3-(Carboxypropyl)]-2-oxopiperazin-1-yl}ethylidene)-1-[2-cyclopropyl-1-(2-fluorophenyl)-2-oxoethyl]-4-sulfanylpiperidine dihydrochloride]	76
CCOC(=O)CN1CCC(/C=C2\CN(C(C(=O)C3CC3)c3ccccc3F)CCC2S)CC1 (centres unmarked) [Example 38, (E)-1-[2-Cyclopropyl-1-(2-fluorophenyl)-2-oxoethyl]-3-{[1-(ethoxycarbonylmethyl)piperidin-4-yl]methylidene}-4-sulfanylpiperidine dihydrochloride]	66
CCOC(=O)CN(C)C/C=C1/CN(C(C(=O)C2CC2)c2ccccc2F)CCC1SC(C)=O (centres unmarked) [Example 84, (Z)-4-(Acetylsulfanyl)-1-[2-cyclopropyl-1-(2-fluorophenyl)-2-oxoethyl]-3-{2-[N-(ethoxycarbonylmethyl)-N-methylamino]ethylidene}piperidine dihydrochloride]	82
CCOC(=O)CN1CCC(/C=C2\CN(C(C(=O)C3CC3)c3ccccc3F)CCC2SC(C)=O)CC1 (centres unmarked) [Example 36, (E)-4-(Acetylsulfanyl)-1-[2-cyclopropyl-1-(2-fluorophenyl)-2-oxoethyl]-3-{[1-(ethoxycarbonylmethyl)piperidin-4-yl]methylidene}piperidine dihydrochloride]	80
CC(=O)SC1CCN(C(C(=O)C2CC2)c2ccccc2F)C/C1=C/CO (centres unmarked) [Example 66, (Z)-4-(Acetylsulfanyl)-1-[2-cyclopropyl-1-(2-fluorophenyl)-2-oxoethyl]-3-(2-hydroxyethylidene)piperidine hydrochloride]	87
COC(=O)[C@@H]1CCCN1C/C=C1\CN(C(C(=O)C2CC2)c2ccccc2F)CCC1S (stereo partly drawn) [Example 26, (E)-1-[2-Cyclopropyl-1-(2-fluorophenyl)-2-oxoethyl]-3-{2-[(2S)-(methoxycarbonyl)pyrrolidin-1-yl]ethylidene}-4-sulfanylpiperidine dihydrochloride]	92
C/C(Cn1cc(C(=O)O)cn1)=C1/CN(C(C(=O)C2CC2)c2ccccc2F)CCC1S (centres unmarked) [Example 62, (E)-3-{[2-(4-Carboxy-1H-pyrazol-1-yl)-1-methyl]ethylidene}-1-[2-cyclopropyl-1-(2-fluorophenyl)-2-oxoethyl]-4-sulfanylpiperidine hydrochloride]	94
CCOC(=O)CCN1CCN(C/C=C2\CN(C(C(=O)C3CC3)c3ccccc3F)CCC2SC(C)=O)CC1=O (centres unmarked) [Example 17, (E)-4-(Acetylsulfanyl)-1-[2-cyclopropyl-1-(2-fluorophenyl)-2-oxoethyl]-3-(2-{4-[2-(ethoxycarbonyl)ethyl]-3-oxopiperazin-1-yl}ethylidene)piperidine]	92
CCOC(=O)CN(C)C/C=C1/CN(C(C(=O)C2CC2)c2ccccc2F)CCC1S (centres unmarked) [Example 85, (Z)-1-[2-Cyclopropyl-1-(2-fluorophenyl)-2-oxoethyl]-3-{2-[N-(ethoxycarbonylmethyl)-N-methylamino]ethylidene}-4-sulfanylpiperidine dihydrochloride]	82
CCOC(=O)C1CCN(C/C=C2\CN(C(C(=O)C3CC3)c3ccccc3F)CCC2S)CC1 (centres unmarked) [Example 30, (E)-1-[2-Cyclopropyl-1-(2-fluorophenyl)-2-oxoethyl]-3-{2-[4-(ethoxycarbonyl)piperidin-1-yl]ethylidene}-4-sulfanylpiperidine dihydrochloride]	93
CCOC(=O)CN1CCN(C/C=C2\CN(C(C(=O)C3CC3)c3ccccc3F)CCC2SC(C)=O)CC1=O (centres unmarked) [Example 13, (E)-4-(Acetylsulfanyl)-1-[2-cyclopropyl-1-(2-fluorophenyl)-2-oxoethyl]-3-{2-[4-(ethoxycarbonylmethyl)-3-oxopiperazin-1-yl]ethylidene}piperidine]	63
CCOC(=O)CN(C)C/C=C1\CN(C(C(=O)C2CC2)c2ccccc2F)CCC1S (centres unmarked) [Example 82, (E)-1-[2-Cyclopropyl-1-(2-fluorophenyl)-2-oxoethyl]-3-{2-[N-(ethoxycarbonylmethyl)-N-methylamino]ethylidene}-4-sulfanylpiperidine dihydrochloride]	81
CC(=O)SC1CCN(C(C(=O)C2CC2)c2ccccc2F)C/C1=C\CO (centres unmarked) [Example 32, (E)-4-(Acetylsulfanyl)-1-[2-cyclopropyl-1-(2-fluorophenyl)-2-oxoethyl]-3-(2-hydroxyethylidene)piperidine]	86
O=C(O)C1CCN(C/C=C2\CN(C(C(=O)C3CC3)c3ccccc3F)CCC2S)CC1 (centres unmarked) [Example 31, (E)-3-{2-[4-(Carboxypiperidine)-1-yl]ethylidene}-1-[2-cyclopropyl-1-(2-fluorophenyl)-2-oxoethyl]-4-sulfanylpiperidine dihydrochloride]	82
O=C(O)C/C=C1\CN(C(C(=O)C2CC2)c2ccccc2F)CCC1S (centres unmarked) [Example 64, (E)-3-(2-Carboxyethylidene)-1-[2-cyclopropyl-1-(2-fluorophenyl)-2-oxoethyl]-4-sulfanylpiperidine hydrochloride]	94
COC(=O)[C@@H]1C[C@@H](O)CN1C/C=C1\CN(C(C(=O)C2CC2)c2ccccc2F)CCC1SC(C)=O (stereo partly drawn) [Example 78, (E)-4-(Acetylsulfanyl)-1-[2-cyclopropyl-1-(2-fluorophenyl)-2-oxoethyl]-3-{2-[(2S,4R)-4-hydroxy-2-(methoxycarbonyl)pyrrolidin-1-yl]ethylidene}piperidine dihydrochloride]	75
CCOC(=O)C1CCN(C/C=C2\CN(C(C(=O)C3CC3)c3ccccc3F)CCC2SC(C)=O)CC1 (centres unmarked) [Example 29, (E)-4-(Acetylsulfanyl)-1-[2-cyclopropyl-1-(2-fluorophenyl)-2-oxoethyl]-3-{2-[4-(ethoxycarbonyl)piperidin-1-yl]ethylidene}piperidine dihydrochloride]	89
CCOC(=O)CN(C)C/C=C1\CN(C(C(=O)C2CC2)c2ccccc2F)CCC1SC(C)=O (centres unmarked) [Example 81, (E)-4-(Acetylsulfanyl)-1-[2-cyclopropyl-1-(2-fluorophenyl)-2-oxoethyl]-3-{2-[N-(ethoxycarbonylmethyl)-N-methylamino]ethylidene}piperidine dihydrochloride]	83
CCOC(=O)CCN1CCN(C/C=C2\CN(C(C(=O)C3CC3)c3ccccc3F)CCC2SC(C)=O)C(=O)C1 (centres unmarked) [Example 21, (E)-4-(Acetylsulfanyl)-1-[2-cyclopropyl-1-(2-fluorophenyl)-2-oxoethyl]-3-(2-{4-[2-(ethoxycarbonyl)ethyl]-2-oxopiperazin-1-yl}ethylidene)piperidine dihydrochloride]	90
CCOC(=O)CCCN(C)C/C=C1/CN(C(C(=O)C2CC2)c2ccccc2F)CCC1SC(C)=O (centres unmarked) [Example 89, (Z)-4-(Acetylsulfanyl)-1-[2-cyclopropyl-1-(2-fluorophenyl)-2-oxoethyl]-3-(2-{N-[3-(ethoxycarbonyl)propyl]-N-methylamino}ethylidene)piperidine dihydrochloride]	83
